Experimental data as given in patent publication US9624161B2 (priority 2009, dated 2017).
Where “and” joins values, the source holds several entries; their conditions need not be identical. Equal values may be shown once. Entries after “also recorded” stand apart in the source; their conditions may differ.

Legend:
[1] = tested on: men with castration resistant prostate cancer (CRPC); assay: Study 3: Compound IV 2000 mg daily in men with castration resistant prostate cancer maintained on ADT; assay type: in vivo, human; settings: for Percentage of treated patients already on ADT (ITT population) below the free T cutoff of 0.5 pg/ml: Study 3, CRPC
Experimental: Men with CRPC (n=9) received 2000 mg Compound IV daily. The primary endpoint of the study was the proportion of subjects with a greater than or equal to 50% reduction in prostate specific antigen (PSA) from Day 1. Secondary endpoints included serum free T and SHBG which together with PSA were assessed at days 1, 15, 30, 60 and 90. Serum concentrations of total T, free T, SHBG and PSA were determined at baseline and during treatment.
A study (Study 3) was conducted to assess the effects of Compound IV on serum PSA progression in men with castration resistant prostate cancer who have been effectively treated with ADT and at the time of enrollment into this study have shown serum PSA progression. This study consisted of one dose arm with 9 subjects.
The subjects were 12 male subjects over age 18 years with castration resistant prostate cancer, who were being treated with androgen deprivation therapy (chemical or surgical castration) for at least 6 months, that have serum PSA >2 ng/mL or […] a 25% increase above the nadir after the initiation of androgen deprivation therapy (ADT) at study enrollment. The subjects were maintained on androgen deprivation therapy throughout the study.
The dose selected for the study was 2000 mg Compound IV. Four Compound IV tablets, 500 mg (2000 mg dose) were orally administered daily. […] Subjects received 2000 mg of Compound IV daily by mouth until study termination. Dosing was to be continued until their serum PSA had increased at least 25% and 2 ng/mL from the nadir at two successive sample times (approximately 30 days apart) after initiation of treatment with Compound IV. The prostate cancer working group (PCWG) definition of PSA progression was used (serum PSA has increased at least 25% and 2 ng/mL above the nadir after initiation of treatment with Compound IV on two successive sample times).
Assessments of serum PSA concentration were made at baseline and on Days 15, 30, and 60 (only 1 patient made it this far before study was terminated).
The proportion of subjects with a 50% decline from baseline in serum PSA (confirmed by a second PSA assessment at least one week later).

liver X receptor (LXR) = assay: Nuclear receptor cross-reactivity transcriptional activation assay; assay type: cell-based, human; settings: agonist and antagonist modes
Description: (§1) Compound IV was screened for cross-reactivity against rat isoforms of glucocorticoid receptor (GR), mineralocorticoids receptor (MR), progesterone receptor (PR), androgen receptor (AR) and human isoforms of farnesoid X receptor (FXR), liver X receptor (LXR), peroxisome proliferator-activated receptors (PPAR-α and PPAR-γ), and retinoid X receptor (RXR-α) in both agonist and antagonist modes in transcriptional activation assays.

[2] = tested on: isolated canine Purkinje fibers; assay: Action potential duration in isolated canine Purkinje fibers in vitro; settings: 10 and 100 μM
Experimental: Compound IV exerts little or no in vitro inhibitory effects (IC50≧300 μM) on the hERG channel.

androgen receptor (AR) = biological target: T1, androgen receptor (AR) (Rattus norvegicus, UniProt P15207); assay: Nuclear receptor cross-reactivity transcriptional activation assay; assay type: cell-based
T1 construct: expressed in transfected cells
Description: as §1

[3] = biological target: T2, retinoid X receptor (RXR-α) (Homo sapiens, UniProt P19793); assay: as above; assay type: cell-based; settings: agonist and antagonist modes
T2 construct: expressed in transfected cells
Description: as §1

[4] = tested on: healthy young male volunteers; assay: Study 1: 56 day proof of concept study in healthy young male volunteers (600, 1000, 1500 mg); assay type: in vivo, human; settings: for BSAP change / FSH change / Free testosterone change / Osteocalcin change / SHBG change / Total testosterone change / serum PSA change: castrated subjects
Experimental: A 56 day, proof of concept study of Compound IV was conducted in healthy young male volunteers. (Table 22 and Table 23 below). […] The free testosterone levels were reduced to levels below the levels expected from surgical castration or those expected from chemical castration with LHRH agonists or antagonists. This is due to a dose dependent increase in sex hormone binding globulin (SHBG) that is observed with Compound IV.

intact and ORX rats = assay: Prostate size in intact and ORX rats, Compound IV versus DES; assay type: in vivo, rat; settings: rats (FIG. 11)
[5] = tested on: sexually mature male cynomolgus monkeys; assay: 39-week oral pharmacology and toxicology study in male cynomolgus monkeys (13-week interim); assay type: in vivo, cynomolgus monkey
[6] = tested on: estrogen related receptor (ERR-α, ERR-β and ERR-γ); assay: Estrogen related receptor transactivation, DES versus Compound IV; assay type: cell-based; settings: FIG. 12C
rats = assay: Gastrointestinal effects after oral administration in rats; assay type: in vivo, rat
[7] = 600 mg, sufficiently compliant subjects
[8] = 1000 mg, sufficiently compliant subjects
[9] = 1500 mg, sufficiently compliant subjects

T1 sequence (P15207 whole entry S389L): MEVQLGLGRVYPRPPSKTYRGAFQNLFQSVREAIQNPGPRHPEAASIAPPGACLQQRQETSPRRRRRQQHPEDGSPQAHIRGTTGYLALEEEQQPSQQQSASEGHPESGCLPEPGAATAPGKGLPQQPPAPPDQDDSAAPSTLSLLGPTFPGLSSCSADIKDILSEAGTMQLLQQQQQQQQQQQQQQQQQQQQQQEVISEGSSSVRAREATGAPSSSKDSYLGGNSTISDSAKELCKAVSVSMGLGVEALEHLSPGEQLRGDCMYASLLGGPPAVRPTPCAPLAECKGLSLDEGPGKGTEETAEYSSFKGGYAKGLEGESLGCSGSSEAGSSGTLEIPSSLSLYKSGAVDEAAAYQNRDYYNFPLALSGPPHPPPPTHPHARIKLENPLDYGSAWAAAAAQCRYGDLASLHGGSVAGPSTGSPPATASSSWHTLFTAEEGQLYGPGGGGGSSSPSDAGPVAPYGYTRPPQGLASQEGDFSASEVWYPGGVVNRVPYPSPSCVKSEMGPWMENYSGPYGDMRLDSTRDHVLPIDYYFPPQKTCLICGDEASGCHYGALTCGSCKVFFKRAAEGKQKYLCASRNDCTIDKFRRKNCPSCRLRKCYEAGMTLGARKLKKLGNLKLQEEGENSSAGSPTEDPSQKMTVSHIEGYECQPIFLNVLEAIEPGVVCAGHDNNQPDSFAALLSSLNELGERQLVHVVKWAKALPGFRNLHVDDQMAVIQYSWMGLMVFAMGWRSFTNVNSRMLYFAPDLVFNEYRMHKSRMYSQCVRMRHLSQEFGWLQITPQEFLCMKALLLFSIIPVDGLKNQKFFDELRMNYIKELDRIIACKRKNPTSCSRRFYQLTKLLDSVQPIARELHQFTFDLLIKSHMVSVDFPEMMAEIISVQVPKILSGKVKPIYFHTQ
T2 sequence (P19793 whole entry): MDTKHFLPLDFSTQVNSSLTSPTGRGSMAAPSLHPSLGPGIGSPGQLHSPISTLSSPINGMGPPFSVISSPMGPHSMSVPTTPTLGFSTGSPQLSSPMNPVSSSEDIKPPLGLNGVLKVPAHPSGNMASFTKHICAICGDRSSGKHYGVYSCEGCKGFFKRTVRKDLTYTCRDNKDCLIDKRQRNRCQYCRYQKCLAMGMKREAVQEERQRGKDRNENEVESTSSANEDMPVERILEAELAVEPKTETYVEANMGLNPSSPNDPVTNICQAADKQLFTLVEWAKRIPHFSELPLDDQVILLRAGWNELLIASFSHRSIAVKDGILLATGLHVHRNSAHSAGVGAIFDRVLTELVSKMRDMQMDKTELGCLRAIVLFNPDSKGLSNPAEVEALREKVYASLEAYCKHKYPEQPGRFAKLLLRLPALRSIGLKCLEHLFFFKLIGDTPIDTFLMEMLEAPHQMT

O=C(c1ccc(O)c(F)c1)N(c1ccc(O)cc1)c1ccc(F)cc1 [Compound IV, 3-fluoro-N-(4-fluorophenyl)-4-hydroxy-N-(4-hydroxyphenyl)benzamide]
Free T reductions and PSA decreases from baseline ([1]; 15 days, men maintained on ADT with LHRH agonists alone): in all of the men
Effect on serum total T levels ([1]; CRPC patients on ADT): did not further reduce
Reduction in % FreeT ([1]; Day 15): greater than 50%
Percentage of treated patients already on ADT (ITT population) below the free T cutoff of 0.5 pg/ml ([1]; 15 days on therapy): 85.7%
Percentage of treated patients already on ADT (ITT population) below the free T cutoff of 0.5 pg/ml ([1]; 30 days on therapy): 66.7%
Percentage of treated patients already on ADT (ITT population) below the free T cutoff of 0.5 pg/ml ([1]; 60 days on therapy): 100%
Patients with greater than 50% reduction in PSA ([1]; after two weeks): 3 of 7
Men that reached free T below 0.5 pg/mL ([1]; day 15): 85.7%
Men that reached free T below 0.5 pg/mL ([1]; day 30): 66.7%
Men that reached free T below 0.5 pg/mL ([1]; day 60): 100%
Subjects with a reduction in serum PSA from baseline to Day 15 ([1]; seven evaluable subjects): All seven
Subjects with >50% reduction in serum PSA ([1]; subjects with at least 30 days of exposure): all three and 2 of 3
Agonist or antagonist activity at LXR (liver X receptor (LXR)): did not display any agonist or antagonist activity
APD50 [2]: dose-dependently decreased
APD90 [2]: dose-dependently decreased
Cross-reaction with androgen receptor (AR) (androgen receptor (AR); FIG. 12B): does not; also recorded: did not
Agonist or antagonist activity at AR (androgen receptor (AR); agonist and antagonist modes): did not display any agonist or antagonist activity
Agonist or antagonist activity at RXR-α [3]: did not display any agonist or antagonist activity
% subjects castrated [4, 7]: 0% ^
BSAP % change from baseline to final observation [4, 7]: −18.7 ± 18.8%
FSH % change from baseline to final observation [4, 7]: −48.4 ± 53.9%
Free testosterone % change from baseline to final observation [4, 7]: −32.9 ± 43.2%
Osteocalcin % change from baseline to final observation [4, 7]: −32.8 ± 11.1%
SHBG % change from baseline to final observation [4, 7]: +363 ± 139%
Total testosterone % change from baseline to final observation [4, 7]: +22.1 ± 51.9%
serum PSA % change from baseline to final observation [4, 7]: −43.8 ± 21.1%
BSAP change ([4]; 1000 mg): 6.0 ± 29%
FSH change ([4]; 1000 mg): −91 ± 5.2%
Free testosterone change ([4]; 1000 mg): −98.2 ± 0.146%
Osteocalcin change ([4]; 1000 mg): −20 ± 15%
SHBG change ([4]; 1000 mg): 471 ± 102%
Total testosterone change ([4]; 1000 mg): −94.7 ± 0.228%
serum PSA change ([4]; 1000 mg): −52 ± 28%
% subjects castrated [4, 8]: 75% ^
BSAP % change from baseline to final observation [4, 8]: −5.97 ± 31.6%
FSH % change from baseline to final observation [4, 8]: −78.4 ± 29.4%
Free testosterone % change from baseline to final observation [4, 8]: −86.4 ± 26.4%
Osteocalcin % change from baseline to final observation [4, 8]: −21.4 ± 14.4%
SHBG % change from baseline to final observation [4, 8]: +446 ± 130%
Total testosterone % change from baseline to final observation [4, 8]: −63.0 ± 59.9%
serum PSA % change from baseline to final observation [4, 8]: −42.8 ± 30.2%
Subjects that reached castrate levels of total testosterone ([4]; 1500 mg dose group, by Day 28, sufficiently compliant subjects): 90%
BSAP change ([4]; 1500 mg): −19 ± 21%
FSH change ([4]; 1500 mg): −88 ± 4.8%
Free testosterone change ([4]; 1500 mg): −97.7 ± 0.155%
Osteocalcin change ([4]; 1500 mg): −23 ± 17%
SHBG change ([4]; 1500 mg): 524 ± 212%
Total testosterone change ([4]; 1500 mg): −92.8 ± 0.65%
serum PSA change ([4]; 1500 mg): −43 ± 24%
% subjects castrated [4, 9]: 92% ^
BSAP % change from baseline to final observation [4, 9]: −21.1 ± 17.0%
FSH % change from baseline to final observation [4, 9]: −89.7 ± 5.07%
Free testosterone % change from baseline to final observation [4, 9]: −97.5 ± 1.64%
Osteocalcin % change from baseline to final observation [4, 9]: −18.2 ± 18.7%
SHBG % change from baseline to final observation [4, 9]: +591 ± 258%
Total testosterone % change from baseline to final observation [4, 9]: −90.6 ± 9.67%
serum PSA % change from baseline to final observation [4, 9]: −48.1 ± 17.0%
SHBG increase over baseline ([4]; each dose arm (600, 1000, 1500 mg), Study 1): 300-600%
Reduction of prostate size (intact and ORX rats): as effective as DES
Monkeys with testosterone below the limit of quantification ([5]; 100 mg/kg/day oral, after 90 days, Group 4): 6 of 10
Initial testosterone flare ([5]; any Compound IV dose, up to 100 mg/kg/day): not observed
Effect on estrogen related receptor (ERR) transactivation [6]: does not; also recorded: failed to crossreact
Gastrointestinal motility and gastric acidity (rats; oral 30 mg/kg in rats): significant increase
Peristalsis (rats; oral 30 to 300 mg/kg in rats): significant increase
